Data published in patent publication US9511143B2, “Aqueous compositions comprising arbekacin” (Meiji Seika Pharma Co., Ltd., priority 2011, dated 2016).

Assays:
P. aeruginosa MSC17707 = assay: Experimental pneumonia caused by Pseudomonas aeruginosa in neutropenic mice, inhalation therapy; format: in vivo; settings: for viable cell counts in the lung in comparison to the non-treatment control group: all the dose levels; for Number of intrapulmonary viable cells: 5 min inhalation 2 h after infection, count 20 h after infection, neutropenic mice, mean ± SD
Procedure: The therapeutic effect of arbekacin inhalation on experimental pneumonia in neutropenic mice, caused by P. aeruginosa, was compared with the therapeutic effect of amikacin and tobramycin.
Cyclophosphamide (Sigma-Aldrich Co.) was dissolved in physiological saline. Four to five week-old Crlj:CD1(ICR) male mice were immunosuppressed by intraperitoneal injection of 150 and 100 mg/kg of cyclophosphamide solution 4 days and 1 day before infection, respectively. Thereafter, pulmonary infection was induced by intranasal inoculation of amikacin- and tobramycin-resistant P. aeruginosa having the aac(6)-lae encoding an aminoglycoside modifying enzyme. The antibiotics dissolved in saline were administered to each mouse using an electronic vibrating membrane nebulizer (eFlow®, PARI Pharma GmbH, spray flow rate: approximately 0.5 ml/min) two hours after the infection, and viable cells per lung were counted 20 hours after the infection. As for the doses of arbekacin, three levels were set at 3, 10 and 30 mg/ml, and the respective doses of amikacin and tobramycin were at three levels of 10, 30, and 100 mg/ml. The inhalation duration was five minutes. Meanwhile, physiological saline was administered to a non-treatment control group.

guinea pigs = system: guinea pigs; parameters: species or system guinea pig (male Hartley strain); settings: guinea pig, in vivo
Procedure: A guinea-pig cough induction model was used to investigate differences in cough induction between the sulfate and hydrochloride forms of arbekacin. The tested substances were commercially available arbekacin sulfate (ABK—H2SO4) and arbekacin hydrochloride (ABK—HCl) that was prepared from arbekacin free base according to the method described in Example 2. The concentration of dosing solutions was set to be 25 mg/ml. In addition, physiological saline was used as a negative control agent whereas citric acid (30 mg/ml) was used as a positive control agent.
Male Hartley strain guinea pigs were subjected to the experiment, with 10 animals per group. […] Cough was detected on the basis of the following indicators: observation of symptoms, analysis of a respiration pattern in the soma-side by a double-flow plethysmograph method using a multi-functional respiration measuring device (Win Pulmos-I, M-I-P-S Corporation), and pressure changes in head-side and soma-side chambers measured by a pressure transducer (blood pressure monitoring kit, Japan Becton, Dickinson and Company). The case, in which a motion of coughing in the symptom observation was noted together with typical changes in the pressure in the head-side and soma-side chambers and in the respiration pattern of the soma side at the time of coughing, was determined to be a cough reflex. […] Then, the occurrence of cough reflex was counted. […]

Row | number of occurrence of cough reflex / cough induction, comparison between groups (guinea pigs) | SMILES | viable cell counts in the lung in comparison to the non-treatment control group (P. aeruginosa MSC17707) | Number of intrapulmonary viable cells (P. aeruginosa MSC17707; level of drug 10 mg/ml) | Number of intrapulmonary viable cells (P. aeruginosa MSC17707; level of drug 30 mg/ml) | Number of intrapulmonary viable cells (P. aeruginosa MSC17707; level of drug 100 mg/ml) | Number of intrapulmonary viable cells (P. aeruginosa MSC17707; level of drug 3 mg/ml) | therapeutic effect compared to amikacin and tobramycin (P. aeruginosa MSC17707; same dosage (10 or 30 mg/ml))
1 | – | NCC[C@H](O)C(=O)N[C@@H]1C[C@H](N)[C@@H](O[C@H]2O[C@H](CN)[C@@H](O)[C@H](O)[C@H]2O)[C@H](O)[C@H]1O[C@H]1O[C@H](CO)[C@@H](O)[C@H](N)[C@H]1O [Amikacin, amikacin] | significantly decreased | 5.65 ± 1.55 log10 CFU/lung | 4.46 ± 1.68 log10 CFU/lung | 2.65 ± 1.74 log10 CFU/lung | – | –
2 | – | NC[C@H]1O[C@H](O[C@H]2[C@H](O)[C@@H](O[C@H]3O[C@H](CO)[C@@H](O)[C@H](N)[C@H]3O)[C@H](N)C[C@@H]2N)[C@H](N)C[C@@H]1O [Tobramycin, tobramycin] | significantly decreased | 5.74 ± 1.57 log10 CFU/lung | 3.48 ± 1.85 log10 CFU/lung | 3.53 ± 1.88 log10 CFU/lung | – | –
3 | – | NCC[C@H](O)C(=O)N[C@@H]1C[C@H](N)[C@@H](O[C@H]2O[C@H](CN)CC[C@H]2N)[C@H](O)[C@H]1O[C@H]1O[C@H](CO)[C@@H](O)[C@H](N)[C@H]1O [Arbekacin, arbekacin] | significantly decreased | 2.20 ± 0.99 log10 CFU/lung | 1.98 ± 0.83 log10 CFU/lung | – | 4.07 ± 2.18 log10 CFU/lung | significantly superior
4 | significantly higher | O=C(O)CC(O)(CC(=O)O)C(=O)O [Citric Acid, citric acid] | – | – | – | – | – | –
